Article PMC2409929 (British Journal of Cancer, 2004)
Marks after values point to notes of the source that are not given here.

Test system: patients with metastatic colorectal cancer
Test: Toxicity graded by NCI-CTC in the phase II trial
Assay type: in vivo, human
Details: for Anaemia, Grade 3–4, %Patients / Anaemia, all grades, %Patients / Leukocytopenia, Grade 3–4, %Patients / Leukocytopenia, all grades, %Patients / Neutropenia, Grade 3–4, %Patients / Neutropenia, all grades, %Patients / Thrombocytopenia, Grade 3–4, %Patients / Thrombocytopenia, all grades, %Patients: worst grade during study
Method: Haematology was checked weekly.
Otherwise, they were analysed by nonparametric methods. […] All tests for significance were two-tailed.

[1] = arm A (350 mg m^−2 90-min i.v. q3 weeks)
[2] = arm A (350 mg m^−2 90-min i.v. q3 weeks), possibly or probably related
[3] = arm B (125 mg m^−2 90-min i.v. weekly × 4 q6 weeks)
[4] = arm B (125 mg m^−2 90-min i.v. weekly × 4 q6 weeks), possibly or probably related
[5] = arm C (250 mg m^−2 90-min i.v. q2 weeks)
[6] = arm C (250 mg m^−2 90-min i.v. q2 weeks), possibly or probably related
[7] = arm D (10 mg m^−2 day^−1 14-day continuous infusion q3 weeks)
[8] = arm D (10 mg m^−2 day^−1 14-day continuous infusion q3 weeks), possibly or probably related

Structure (SMILES): CCc1c2c(nc3ccc(OC(=O)N4CCC(N5CCCCC5)CC4)cc13)-c1cc3c(c(=O)n1C2)COC(=O)[C@]3(O)CC [irinotecan]
- Anaemia, Grade 3–4, %Cycles [1]: 1%
- Anaemia, all grades, %Cycles [1]: 92%
- Episodes of grade 3–4 neutropenia with duration <8 days [1]: 53%
- Febrile neutropenia, %Patients [1]: 75%
- Leukocytopenia, Grade 3–4, %Cycles [1]: 15%
- Leukocytopenia, all grades, %Cycles [1]: 70%
- Neutropenia, Grade 3–4, %Cycles [1]: 21%
- Neutropenia, all grades, %Cycles [1]: 65%
- Neutropenic infection, %Cycles [1]: 1%
- Neutropenic infection, %Patients [1]: 2%
- Number of patients with at least one grade 3–4 adverse event possibly or probably related to irinotecan [1]: 12
- Patients with at least one grade 3–4 adverse event possibly or probably related to irinotecan, % [1]: 29%
- Thrombocytopenia, Grade 3–4, %Cycles [1]: 0/0%
- Thrombocytopenia, all grades, %Cycles [1]: 14%
- Alopecia, all grades, % of patients [2]: 71 ^b %
- Anorexia, all grades, % of patients [2]: 12%
- Cholinergic syndrome, all grades, % of patients [2]: 68 ^a %
- Diarrhoea, Grade 3–4, % of patients [2]: 10%
- Diarrhoea, all grades, % of patients [2]: 88%
- Fatigue, Grade 3–4, % of patients [2]: 7%
- Fatigue, all grades, % of patients [2]: 51%
- Fever in absence of infection, Grade 3–4, % of patients [2]: 2%
- Fever in absence of infection, all grades, % of patients [2]: 12%
- Gastrointestinal pain, Grade 3–4, % of patients [2]: 2%
- Gastrointestinal pain, all grades, % of patients [2]: 17%
- Infection, Grade 3–4, % of patients [2]: 2%
- Infection, all grades, % of patients [2]: 7%
- Nausea, Grade 3–4, % of patients [2]: 15%
- Nausea, all grades, % of patients [2]: 73%
- Vomiting, Grade 3–4, % of patients [2]: 10%
- Vomiting, all grades, % of patients [2]: 54%
- Median time to recovery from grade 3–4 neutropenia (arm A (350 mg m^−2 90-min i.v. q3 weeks), range 6–14): 7 days
- Median number of days to grade 3–4 nadir (neutropenia) (arm A (350 mg m^−2 90-min i.v. q3 weeks), range 6–17): 9 days
- Anaemia, Grade 3–4, %Patients [1]: 2%
- Anaemia, all grades, %Patients [1]: 98%
- Leukocytopenia, Grade 3–4, %Patients [1]: 20%
- Leukocytopenia, all grades, %Patients [1]: 73%
- Neutropenia, Grade 3–4, %Patients [1]: 34%
- Neutropenia, all grades, %Patients [1]: 73%
- Thrombocytopenia, Grade 3–4, %Patients [1]: 0/0%
- Thrombocytopenia, all grades, %Patients [1]: 24%
- Anaemia, Grade 3–4, %Cycles [3]: 1%
- Anaemia, all grades, %Cycles [3]: 87%
- Episodes of grade 3–4 neutropenia with duration <8 days [3]: 77%
- Febrile neutropenia, %Cycles [3]: 2%
- Febrile neutropenia, %Patients [3]: 5%
- Leukocytopenia, Grade 3–4, %Cycles [3]: 6%
- Leukocytopenia, all grades, %Cycles [3]: 53%
- Neutropenia, Grade 3–4, %Cycles [3]: 12%
- Neutropenia, all grades, %Cycles [3]: 50%
- Number of patients with at least one grade 3–4 adverse event possibly or probably related to irinotecan [3]: 11
- Patients with at least one grade 3–4 adverse event possibly or probably related to irinotecan, % [3]: 30%
- Thrombocytopenia, Grade 3–4, %Cycles [3]: 0/0%
- Thrombocytopenia, all grades, %Cycles [3]: 6%
- Alopecia, all grades, % of patients [4]: 43%
- Anorexia, all grades, % of patients [4]: 14%
- Cholinergic syndrome, all grades, % of patients [4]: 41 ^a %
- Diarrhoea, Grade 3–4, % of patients [4]: 24%
- Diarrhoea, all grades, % of patients [4]: 76%
- Fatigue, Grade 3–4, % of patients [4]: 3%
- Fatigue, all grades, % of patients [4]: 38%
- Fever in absence of infection, all grades, % of patients [4]: 19%
- Gastrointestinal pain, Grade 3–4, % of patients [4]: 3%
- Gastrointestinal pain, all grades, % of patients [4]: 16%
- Infection, Grade 3–4, % of patients [4]: 5%
- Infection, all grades, % of patients [4]: 11%
- Nausea, Grade 3–4, % of patients [4]: 5%
- Nausea, all grades, % of patients [4]: 73%
- Vomiting, Grade 3–4, % of patients [4]: 3%
- Vomiting, all grades, % of patients [4]: 57%
- Median time to recovery from grade 3–4 neutropenia (arm B (125 mg m^−2 90-min i.v. weekly × 4 q6 weeks), range 2–15): 7 days
- Median number of days to grade 3–4 nadir (neutropenia) (arm B (125 mg m^−2 90-min i.v. weekly × 4 q6 weeks), range 4–13): 7 days
- Anaemia, Grade 3–4, %Patients [3]: 3%
- Anaemia, all grades, %Patients [3]: 92%
- Leukocytopenia, Grade 3–4, %Patients [3]: 14%
- Leukocytopenia, all grades, %Patients [3]: 68%
- Neutropenia, Grade 3–4, %Patients [3]: 25%
- Neutropenia, all grades, %Patients [3]: 61%
- Thrombocytopenia, Grade 3–4, %Patients [3]: 0/0%
- Thrombocytopenia, all grades, %Patients [3]: 11%
- Anaemia, Grade 3–4, %Cycles [5]: 4/4%
- Anaemia, all grades, %Cycles [5]: 90%
- Discontinuation due to toxicity, main reason diarrhoea [5]: 7%
- Episodes of grade 3–4 neutropenia with duration <8 days [5]: 84%
- Febrile neutropenia, %Cycles [5]: 1%
- Febrile neutropenia, %Patients [5]: 7%
- Leukocytopenia, Grade 3–4, %Cycles [5]: 6%
- Leukocytopenia, all grades, %Cycles [5]: 56%
- Neutropenia, Grade 3–4, %Cycles [5]: 20%
- Neutropenia, all grades, %Cycles [5]: 57%
- Neutropenic infection, %Cycles [5]: 1%
- Neutropenic infection, %Patients [5]: 2%
- Number of patients with at least one grade 3–4 adverse event possibly or probably related to irinotecan [5]: 14
- Patients who discontinued treatment due to toxicity (from the study drug) [5]: 11%
- Patients with at least one grade 3–4 adverse event possibly or probably related to irinotecan, % [5]: 30%
- Thrombocytopenia, Grade 3–4, %Cycles [5]: 0/0%
- Thrombocytopenia, all grades, %Cycles [5]: 6%
- Alopecia, all grades, % of patients [6]: 67 ^b %
- Anorexia, all grades, % of patients [6]: 17%
- Cholinergic syndrome, Grade 3–4, % of patients [6]: 2%
- Cholinergic syndrome, all grades, % of patients [6]: 61 ^a %
- Diarrhoea, Grade 3–4, % of patients [6]: 13%
- Diarrhoea, all grades, % of patients [6]: 74%
- Fatigue, Grade 3–4, % of patients [6]: 4%
- Fatigue, all grades, % of patients [6]: 61%
- Fever in absence of infection, Grade 3–4, % of patients [6]: 4%
- Fever in absence of infection, all grades, % of patients [6]: 15%
- Gastrointestinal pain, Grade 3–4, % of patients [6]: 2%
- Gastrointestinal pain, all grades, % of patients [6]: 17%
- Infection, all grades, % of patients [6]: 11%
- Nausea, Grade 3–4, % of patients [6]: 9%
- Nausea, all grades, % of patients [6]: 65%
- Vomiting, Grade 3–4, % of patients [6]: 9%
- Vomiting, all grades, % of patients [6]: 50%
- Median time to recovery from grade 3–4 neutropenia (arm C (250 mg m^−2 90-min i.v. q2 weeks), range 1–12): 7 days
- Median number of days to grade 3–4 nadir (neutropenia) (arm C (250 mg m^−2 90-min i.v. q2 weeks), range 6–17): 7 days
- Anaemia, Grade 3–4, %Patients [5]: 4/4%
- Anaemia, all grades, %Patients [5]: 91%
- Leukocytopenia, Grade 3–4, %Patients [5]: 15%
- Leukocytopenia, all grades, %Patients [5]: 70%
- Neutropenia, Grade 3–4, %Patients [5]: 28%
- Neutropenia, all grades, %Patients [5]: 65%
- Thrombocytopenia, Grade 3–4, %Patients [5]: 0/0%
- Thrombocytopenia, all grades, %Patients [5]: 15%
- Anaemia, Grade 3–4, %Cycles [7]: 0/0%
- Anaemia, all grades, %Cycles [7]: 83%
- Discontinuation due to toxicity, main reason diarrhoea [7]: 14%
- Discontinuation due to toxicity, main reason vomiting [7]: 14%
- Episodes of grade 3–4 neutropenia with duration <8 days [7]: 25%
- Leukocytopenia, Grade 3–4, %Cycles [7]: 3%
- Leukocytopenia, all grades, %Cycles [7]: 24%
- Neutropenia, Grade 3–4, %Cycles [7]: 5%
- Neutropenia, all grades, %Cycles [7]: 15%
- Neutropenic infection, %Cycles [7]: 1%
- Neutropenic infection, %Patients [7]: 2%
- Number of patients with at least one grade 3–4 adverse event possibly or probably related to irinotecan [7]: 22
- Patients who discontinued treatment due to toxicity (from the study drug) [7]: 21%
- Patients with at least one grade 3–4 adverse event possibly or probably related to irinotecan, % [7]: 50%
- Thrombocytopenia, Grade 3–4, %Cycles [7]: 3%
- Thrombocytopenia, all grades, %Cycles [7]: 8%
- Alopecia, all grades, % of patients [8]: 34 ^b %
- Anorexia, Grade 3–4, % of patients [8]: 5%
- Anorexia, all grades, % of patients [8]: 34%
- Cholinergic syndrome, all grades, % of patients [8]: 7 ^a %
- Diarrhoea, Grade 3–4, % of patients [8]: 25%
- Diarrhoea, all grades, % of patients [8]: 77%
- Fatigue, Grade 3–4, % of patients [8]: 7%
- Fatigue, all grades, % of patients [8]: 52%
- Fever in absence of infection, all grades, % of patients [8]: 16%
- Gastrointestinal pain, Grade 3–4, % of patients [8]: 2%
- Gastrointestinal pain, all grades, % of patients [8]: 23%
- Infection, Grade 3–4, % of patients [8]: 7%
- Infection, all grades, % of patients [8]: 11%
- Nausea, Grade 3–4, % of patients [8]: 23%
- Nausea, all grades, % of patients [8]: 80%
- Vomiting, Grade 3–4, % of patients [8]: 16%
- Vomiting, all grades, % of patients [8]: 59%
- Median time to recovery from grade 3–4 neutropenia (arm D (10 mg m^−2 day^−1 14-day continuous infusion q3 weeks), range 4–4): 4 days
- Median number of days to grade 3–4 nadir (neutropenia) (arm D (10 mg m^−2 day^−1 14-day continuous infusion q3 weeks), range 14–19): 16 days
- Anaemia, Grade 3–4, %Patients [7]: 0/0%
- Anaemia, all grades, %Patients [7]: 91%
- Leukocytopenia, Grade 3–4, %Patients [7]: 5%
- Leukocytopenia, all grades, %Patients [7]: 30%
- Neutropenia, Grade 3–4, %Patients [7]: 9%
- Neutropenia, all grades, %Patients [7]: 23%
- Thrombocytopenia, Grade 3–4, %Patients [7]: 5%
- Thrombocytopenia, all grades, %Patients [7]: 9%
